Patent US12157730B2, “Heteroaryl derivative, method for producing same, and pharmaceutical composition comprising same as effective component” (VORONOI INC., priority 2019, dated 2024)

biological target: T1, Ba/F3 cell EGFR Exon20 ins NPH (Homo sapiens, UniProt P00533, INS773NPH); experiment: Ba/F3 cell proliferation suppression, EGFR Exon20 ins NPH; assay type: cell-based; conditions: GI50 class; Ba/F3 cell line with NPH inserted at Exon20 of EGFR; 72 hours
T1 construct: expressed in transfected cells; host or cells: Ba/F3
In short: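 72 h compound exposure, 0.3 nM–50 um (12 points, 3:1 dilution in DMSO); viability by CellTiter-Glo luminescence. Ba/F3 medium: RPMI-1640, 10% FBS, 5 ng/ml IL-3, 1 ug/ml puromycin for transduced cells. GI50 vs control, n=3.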

| Ba/F3 (NPH) Activity | Compound |
| --- | --- |
| A (GI50 < 50 nM) | C=CC(=O)Nc1cc(Nc2cc(N3OCC[C@@H]3c3cccc(OC)c3)ncn2)c(OC)cc1N1CCC(N2CCOCC2)CC1 [compound 775, N-(4-methoxy-5-((6-((R)-3-(3-methoxyphenyl)isoxazolidine-2-yl)pyrimidine-4-yl)amino)-2-(4-morpholinopiperidine-1-yl)phenyl)acrylamide] |
| A (GI50 < 50 nM) | C=CC(=O)Nc1cc(Nc2cc(N3OCC[C@@H]3c3ccc(F)cc3F)ncn2)c(OC)cc1N1CCC(N(C)C)CC1 [compound 384, N-(5-((6-((R)-3-(2,4-difluorophenyl)isoxazolidine-2-yl)pyrimidine-4-yl)amino)-2-(4-(dimethylamino)piperidine-1-yl)-4-methoxyphenyl) acrylamide] |
| A (GI50 < 50 nM) | C=CC(=O)Nc1cc(Nc2cc(N3OCC[C@@H]3Cc3ccccc3)ncn2)c(OC)cc1N1CCC(N2CCN(C3CC3)CC2)CC1 [compound 955, N-(5-((6-((S)-3-benzylisoxazolidine-2-yl)pyrimidine-4-yl)amino)-2-(4-(4-cyclopropylpiperazine-1-yl)piperidine-1-yl)-4-methoxyphenyl) acrylamide] |
| A (GI50 < 50 nM) | C=CC(=O)Nc1cc(Nc2cc(N3OCC[C@@H]3c3cccc(Cl)c3)ncn2)c(OC)cc1N1CCC(N2C[C@@H](C)O[C@@H](C)C2)CC1 [compound 415, N-(5-((6-((R)-3-(3-chlorophenyl)isoxazolidine-2-yl)pyrimidine-4-yl)amino)-2-(4-((2S,6R)-2,6-dimethylmorpholino)piperidine-1-yl)-4-methoxyphenyl) acrylamide] |
| A (GI50 < 50 nM) | C=CC(=O)Nc1cc(Nc2cc(N3OCC[C@@H]3c3cccc4ccccc34)ncn2)c(OC)cc1N1CCC(N2CCO[C@@H](C)C2)CC1 [compound 535, N-(4-methoxy-2-(4-((S)-2-methylmorpholino)piperidine-1-yl)-5-((6-((R)-3-(naphthalene-1-yl)isoxazolidine-2-yl)pyrimidine-4-yl)amino)phenyl)acrylamide] |
| A (GI50 < 50 nM) | C=CC(=O)Nc1cc(Nc2cc(N3OCC[C@@H]3c3ccc(F)c(F)c3)ncn2)c(OC)cc1N1CCC(N2CCN(CC)CC2)CC1 [compound 545, N-(5-((6-((R)-3-(3,4-difluorophenyl)isoxazolidine-2-yl)pyrimidine-4-yl)amino)-2-(4-(4-ethylpiperazine-1-yl)piperidine-1-yl)-4-methoxyphenyl) acrylamide] |
| A (GI50 < 50 nM) | C=CC(=O)Nc1cc(Nc2cc(N3OCC[C@@H]3c3cccc(F)c3Cl)ncn2)c(OC)cc1N1CCC(N2CCN(C(C)=O)CC2)CC1 [compound 601, N-(2-(4-(4-acetylpiperazine-1-yl)piperidine-1-yl)-5-((6-((R)-3-(2-chloro-3-fluorophenyl)isoxazolidine-2-yl)pyrimidine-4-yl)amino)-4-methoxyphenyl) acrylamide] |
| B (50 nM ≤ GI50 < 500 nM) | C=CC(=O)Nc1cc(Nc2cc(N3OCC[C@@H]3c3ccc(F)c(Cl)c3F)ncn2)c(OC)cc1N1C[C@@H](C)O[C@@H](C)C1 [compound 667, N-(5-((6-((R)-3-(3-chloro-2,4-difluorophenyl)isoxazolidine-2-yl)pyrimidine-4-yl)amino)-2-((2S,6R)-2,6-dimethylmorpholino)-4-methoxyphenyl) acrylamide] |
| A (GI50 < 50 nM) | C=CC(=O)Nc1cc(Nc2cc(N3OCC[C@@H]3c3cccc(Cl)c3F)ncn2)c(OC)cc1N1CCC(N2C[C@H]3C[C@@H]2CO3)CC1 [Example 258, N-(2-(4-((1R,4R)-2-oxa-5-azabicyclo [2.2.1]heptane-5-yl)piperidine-1-yl)-5-((6-((R)-3-(3-chloro-2-fluorophenyl)isoxazolidine-2-yl)pyrimidine-4-yl)amino)-4-methoxyphenyl) acrylamide] |
| A (GI50 < 50 nM) | C=CC(=O)Nc1cc(Nc2cc(N3OCC[C@@H]3c3ccc(Cl)c(F)c3)ncn2)c(OC)cc1N1CCC(N2C[C@H]3C[C@@H]2CO3)CC1 [Example 256, N-(2-(4-((1R,4R)-2-oxa-5-azabicyclo[2.2.1]heptane-5-yl)piperidine-1-yl)-5-((6-((R)-3-(4-chloro-3-fluorophenyl)isoxazolidine-2-yl)pyrimidine-4-yl)amino)-4-methoxyphenyl) acrylamide] |
| A (GI50 < 50 nM) | C=CC(=O)Nc1cc(Nc2cc(N3OCC[C@@H]3c3ccc(F)cc3F)ncn2)c(OC)cc1N1CCC(N2C[C@H]3C[C@@H]2CN3C)CC1 [compound 473, N-(5-((6-((R)-3-(2,4-difluorophenyl)isoxazolidine-2-yl)pyrimidine-4-yl)amino)-4-methoxy-2-(4-((1R,4R)-5-methyl-2,5-diazabicyclo[2.2.1]heptane-2-yl)piperidine-1-yl)phenyl)acrylamide] |
| A (GI50 < 50 nM) | C=CC(=O)Nc1cc(Nc2cc(N3OCC[C@@H]3c3ccc(F)c(Cl)c3)ncn2)c(OC)cc1N1CCOCC1 [compound 824, N-(5-((6-((R)-3-(3-chloro-4-fluorophenyl)isoxazolidine-2-yl)pyrimidine-4-yl)amino)-4-methoxy-2-morpholinophenyl) acrylamide] |
| A (GI50 < 50 nM) | C=CC(=O)Nc1cc(Nc2cc(N3OCC[C@@H]3c3cccc(C(F)(F)F)c3)ncn2)c(OC)cc1N1CCN(CC)CC1 [compound 452, N-(2-(4-ethylpiperazine-1-yl)-4-methoxy-5-((6-((R)-3-(3-(trifluoromethyl)phenyl)isoxazolidine-2-yl)pyrimidine-4-yl)amino)phenyl) acrylamide] |
| B (50 nM ≤ GI50 < 500 nM) | C=CC(=O)Nc1cc(Nc2cc(N3OCC[C@@H]3c3ccc(C)nc3)ncn2)c(OC)cc1N1CCC(N2C[C@H]3C[C@@H]2CO3)CC1 [Example 227, N-(2-(4-((1R,4R)-2-oxa-5-azabicyclo[2.2.1]heptane-5-yl)piperidine-1-yl)-4-methoxy-5-((6-((R)-3-(6-methylpyridine-3-yl)isoxazolidine-2-yl)pyrimidine-4-yl)amino)phenyl)acrylamide] |
| B (50 nM ≤ GI50 < 500 nM) | C=CC(=O)Nc1cc(Nc2cc(N3OCC[C@@H]3c3ccc(Cl)c(Cl)c3F)ncn2)c(OC)cc1N1CCC(N2CC[C@@H](N(C)C)C2)CC1 [compound 771, N-(5-((6-((R)-3-(3,4-dichloro-2-fluorophenyl)isoxazolidine-2-yl)pyrimidine-4-yl)amino)-2-(4-((R)-3-(dimethylamino)pyrolidine-1-yl)piperidine-1-yl)-4-methoxyphenyl) acrylamide] |
| A (GI50 < 50 nM) | C=CC(=O)Nc1cc(Nc2cc(N3OCC[C@@H]3c3cccc(Cl)c3F)ncn2)c(OC)cc1N1CCC(N2CCN(C3COC3)CC2)CC1 [Example 86, N-(5-((6-((R)-3-(3-chloro-2-fluorophenyl)isoxazolidine-2-yl)pyrimidine-4-yl)amino)-4-methoxy-2-(4-(4-(oxetane-3-yl)piperazine-1-yl)piperidine-1-yl)phenyl)acrylamide] |

| Compound | Ba/F3 (NPH) Activity |
| --- | --- |
| C=CC(=O)Nc1cc(Nc2cc(N3OCC[C@@H]3c3cccc(Cl)c3C)ncn2)c(OC)cc1N1CCC(N2CC3CCC(C2)N3C2CC2)CC1 [Example 154, N-(5-((6-((R)-3-(3-chloro-2-methylphenyl)isoxazolidine-2-yl)pyrimidine-4-yl)amino)-2-(4-(8-cyclopropyl-3,8-diazabicyclo [3.2.1]octan-3-yl)piperidine-1-yl)-4-methoxyphenyl) acrylamide] | A (GI50 < 50 nM) |
